Results as given in PMC7413254 (Nature Communications, 2020).

Tests used:
non-expressing oocytes = assay type: cell-based, Xenopus laevis; details: footnote b: highest intracellular concentration tested was 30 mM (solubility); for Trans-stimulation: total [3H]CQ transport, non-expressing oocytes: mean ± SEM, SEM; for Trans-stimulation data: total [3H]CQ transport: normalised to the oocyte type control (control = 100)
Experimental: Unless specified otherwise, the transport assays were conducted over 1.5 h at 27.5 °C and the reaction buffer was ND96 (96 mM NaCl, 2 mM KCl, 1 mM MgCl2, 1.8 mM CaCl2, 10 mM MES and 10 mM Tris-base) at pH 5.5.
The intracellular concentrations were calculated using previous estimates of the volume of stage V–VI oocytes (~400 nL[60]). […] The oocytes were injected with VF-6 suspended in 25 nL ND96 buffer adjusted to pH 5.0, 5.5, 6.0 or 7.0, which corresponded to the injection of 2.5–250 fmol of H^+. The Na^+-dependence of the trans-stimulatory effect of VF-6 was assessed by injecting the oocytes with VF-6 suspended in ND96 buffer (pH 5.5) or a Na^+-free version of this buffer (the Na^+ was replaced with choline).
At least four independent experiments were performed (on different days and using oocytes from different frogs), and within each experiment measurements were made from ten oocytes per treatment.

PfCRT^3D7 = PfCRT^3D7 (Plasmodium falciparum, UniProt Q8IBZ9); assay: cell-based; assay type: cell-based; details: for Trans-stimulation data: PfCRT-mediated [3H]CQ transport: 2nd of 6 trans-stimulation columns, footnote b: due to solubility the highest intracellular concentration tested was 30 mM, normalised to the oocyte type control = 100; for Trans-stimulation data: total [3H]CQ transport: normalised to the oocyte type control (control = 100); for Trans-stimulation: total [3H]CQ transport, PfCRT3D7 oocytes: mean ± SEM, SEM
Sequence of PfCRT^3D7 (Q8IBZ9 59-398): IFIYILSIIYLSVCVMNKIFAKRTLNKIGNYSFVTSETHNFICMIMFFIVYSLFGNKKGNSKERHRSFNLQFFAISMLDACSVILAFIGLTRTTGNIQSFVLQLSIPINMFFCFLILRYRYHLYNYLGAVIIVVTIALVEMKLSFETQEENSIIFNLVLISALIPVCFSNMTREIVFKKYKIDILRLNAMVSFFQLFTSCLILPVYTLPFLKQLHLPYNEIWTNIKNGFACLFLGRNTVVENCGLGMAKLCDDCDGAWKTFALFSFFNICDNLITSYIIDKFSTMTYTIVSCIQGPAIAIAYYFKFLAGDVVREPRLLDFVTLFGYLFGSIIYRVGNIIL
Method in brief: (§1)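 Transport measured in Xenopus oocytes expressing the transporters, 1.5 h at 27.5 °C in ND96 pH 5.5 unless noted. For trans-stimulation, VF-6 injected in 25 nL ND96 at pH 5.0–7.0 or Na^+-free (choline) buffer; intracellular levels based on ~400 nL oocyte volume. Ten oocytes per treatment, ≥4 experiments.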

PfCRT^Ecu1110 = PfCRT^Ecu1110 (Plasmodium falciparum, UniProt Q9N623, A220S/I356L/K76T/N326D); assay: cell-based; assay type: cell-based; details: for Trans-stimulation data: total [3H]CQ transport: normalised to the oocyte type control (control = 100); for Trans-stimulation: total [3H]CQ transport, PfCRTEcu1110 oocytes: mean ± SEM, SEM; for Trans-stimulation data: PfCRT-mediated [3H]CQ transport: footnote b: due to solubility the highest intracellular concentration tested was 30 mM, normalised to the oocyte type control = 100
Sequence of PfCRT^Ecu1110 (Q9N623 whole entry A220S/I356L/K76T/N326D): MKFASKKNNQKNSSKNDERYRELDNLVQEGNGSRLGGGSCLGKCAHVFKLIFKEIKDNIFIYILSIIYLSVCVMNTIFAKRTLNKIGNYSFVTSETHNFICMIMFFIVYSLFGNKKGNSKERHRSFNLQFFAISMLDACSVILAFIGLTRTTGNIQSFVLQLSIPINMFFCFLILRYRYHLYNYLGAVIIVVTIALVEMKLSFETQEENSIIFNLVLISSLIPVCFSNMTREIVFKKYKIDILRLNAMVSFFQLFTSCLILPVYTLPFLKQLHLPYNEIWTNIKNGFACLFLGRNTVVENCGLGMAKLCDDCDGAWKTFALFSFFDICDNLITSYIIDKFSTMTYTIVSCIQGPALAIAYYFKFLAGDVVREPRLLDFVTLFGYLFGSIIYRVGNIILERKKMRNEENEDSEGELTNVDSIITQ
Method in brief: as §1

PfCRT^Dd2 = PfCRT^Dd2 (Plasmodium falciparum, UniProt Q9N623, A220S/I356T/K76T/M74I/N326S/N75E/Q271E/R371I); assay: cell-based; assay type: cell-based; details: for Trans-stimulation data: total [3H]CQ transport: normalised to the oocyte type control (control = 100); for PfCRT-mediated [3H]CQ transport, trans-stimulation by injected solute, PfCRTDd2 / Trans-stimulation data: PfCRT-mediated [3H]CQ transport: footnote b: due to solubility the highest intracellular concentration tested was 30 mM; for PfCRT-mediated [3H]CQ transport, trans-stimulation by injected solute, PfCRTDd2: background subtracted; for Trans-stimulation: total [3H]CQ transport, PfCRTDd2 oocytes: mean ± SEM, SEM; for Trans-stimulation data: PfCRT-mediated [3H]CQ transport: normalised to the oocyte type control = 100
Sequence of PfCRT^Dd2 (Q9N623 whole entry A220S/I356T/K76T/M74I/N326S/N75E/Q271E/R371I): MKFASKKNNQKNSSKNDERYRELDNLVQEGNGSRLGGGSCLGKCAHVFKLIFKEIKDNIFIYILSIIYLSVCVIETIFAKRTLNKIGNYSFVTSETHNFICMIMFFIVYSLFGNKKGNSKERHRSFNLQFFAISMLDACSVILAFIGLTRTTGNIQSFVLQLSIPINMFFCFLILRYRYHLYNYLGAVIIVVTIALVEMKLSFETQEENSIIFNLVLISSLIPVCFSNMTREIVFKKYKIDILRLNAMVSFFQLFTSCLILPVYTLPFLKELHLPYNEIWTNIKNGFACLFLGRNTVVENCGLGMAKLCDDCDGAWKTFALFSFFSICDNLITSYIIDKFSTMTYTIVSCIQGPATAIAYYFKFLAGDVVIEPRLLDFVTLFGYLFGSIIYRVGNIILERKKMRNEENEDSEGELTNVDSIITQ
Method in brief: as §1

PfNT1 = target: T1, PfNT1 (Plasmodium falciparum, UniProt Q8IDM6); assay: cell-based; assay type: cell-based; details: footnote b: highest intracellular concentration tested was 30 mM (solubility); for Trans-stimulation data: total [3H]CQ transport: normalised to the oocyte type control (control = 100); for Trans-stimulation: total [3H]CQ transport, PfNT1 oocytes: mean ± SEM, SEM
T1 construct: expressed in transfected cells; host or cells: Xenopus laevis oocytes (stage V-VI), cRNA-injected
T1 sequence (Q8IDM6 whole entry): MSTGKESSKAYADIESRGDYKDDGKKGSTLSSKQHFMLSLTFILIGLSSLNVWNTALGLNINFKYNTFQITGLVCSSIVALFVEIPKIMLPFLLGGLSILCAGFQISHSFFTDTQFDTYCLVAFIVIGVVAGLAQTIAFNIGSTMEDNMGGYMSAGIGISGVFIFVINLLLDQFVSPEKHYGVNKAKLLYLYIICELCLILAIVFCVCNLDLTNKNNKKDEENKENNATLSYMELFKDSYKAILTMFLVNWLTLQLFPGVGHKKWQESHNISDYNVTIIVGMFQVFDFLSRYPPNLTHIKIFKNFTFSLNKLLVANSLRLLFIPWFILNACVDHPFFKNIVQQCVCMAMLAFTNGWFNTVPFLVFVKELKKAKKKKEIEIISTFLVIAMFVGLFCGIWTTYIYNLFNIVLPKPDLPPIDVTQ
Method in brief: as §1

[1] = PfCRT3D7 oocytes, footnote b: highest intracellular concentration tested was 30 mM (solubility)
[2] = footnote b: highest intracellular concentration tested was 30 mM (solubility)
[3] = PfCRTEcu1110 oocytes, footnote b: highest intracellular concentration tested was 30 mM (solubility)
[4] = PfCRTDd2 oocytes, footnote b: highest intracellular concentration tested was 30 mM (solubility)

Sequence	Trans-stimulation: total [3H]CQ transport, non-expressing oocytes (non-expressing oocytes)	Trans-stimulation data: total [3H]CQ transport (non-expressing oocytes; non-expressing oocytes) [b]	Trans-stimulation data: PfCRT-mediated [3H]CQ transport (PfCRT^3D7) [b]	Trans-stimulation data: total [3H]CQ transport (PfCRT^3D7; [1]) [b]	Trans-stimulation: total [3H]CQ transport, PfCRT3D7 oocytes (PfCRT^3D7; [2])	Trans-stimulation data: total [3H]CQ transport (PfCRT^Ecu1110; [3]) [b]	Trans-stimulation: total [3H]CQ transport, PfCRTEcu1110 oocytes (PfCRT^Ecu1110; [2])	Trans-stimulation data: PfCRT-mediated [3H]CQ transport (PfCRT^Ecu1110) [b]	Trans-stimulation data: total [3H]CQ transport (PfCRT^Dd2; [4]) [b]	PfCRT-mediated [3H]CQ transport, trans-stimulation by injected solute, PfCRTDd2 (PfCRT^Dd2)	Trans-stimulation: total [3H]CQ transport, PfCRTDd2 oocytes (PfCRT^Dd2; [2])	Trans-stimulation data: PfCRT-mediated [3H]CQ transport (PfCRT^Dd2) [b]	Trans-stimulation data: total [3H]CQ transport (PfNT1; PfNT1 oocytes) [b]	Trans-stimulation: total [3H]CQ transport, PfNT1 oocytes (PfNT1)	Total [3H]CQ transport, trans-stimulation by injected solute (non-expressing oocytes; non-expressing oocytes)	Total [3H]CQ transport, trans-stimulation by injected solute (PfCRT^3D7; [1])	Total [3H]CQ transport, trans-stimulation by injected solute (PfCRT^Ecu1110; [3])	Total [3H]CQ transport, trans-stimulation by injected solute (PfCRT^Dd2; [4])	Total [3H]CQ transport, trans-stimulation by injected solute (PfNT1; PfNT1 oocytes)
LTPEEKSAVTAL [LL-12]	3.2 ± 0.08b % of PfCRTDd2 control	99 ± 2.4	97 ± 3.4	99 ± 2.7	3.1 ± 0.05b % of PfCRTDd2 control	100 ± 2.2	33 ± 1.0b % of PfCRTDd2 control	98 ± 1.7	100 ± 2.8	98 ± 1.1b % of PfCRTDd2 control	100 ± 2.8b % of PfCRTDd2 control	98 ± 1.1	99 ± 2.5	2.2 ± 0.06b % of PfCRTDd2 control					
GTFATLSELHCDK [GK-13]	2.6 ± 0.05b % of PfCRTDd2 control	100 ± 3.8	98 ± 4.1	100 ± 3.6	3.1 ± 0.04b % of PfCRTDd2 control	99 ± 2.2	32 ± 1.5b % of PfCRTDd2 control	97 ± 1.9	97 ± 2.7	95 ± 1.3b % of PfCRTDd2 control	97 ± 2.7b % of PfCRTDd2 control	95 ± 1.3	99 ± 2.7	2.6 ± 0.04b % of PfCRTDd2 control					
SFGDLSTPDAVMG [SG-13]		100 ± 3.6	97 ± 1.9	99 ± 2.5		101 ± 2.4		99 ± 1.8	100 ± 2.9	98 ± 3.0b % of PfCRTDd2 control		98 ± 3.0	98 ± 2.4		3.0 ± 0.04b % of the PfCRTDd2 control	3.1 ± 0.05b % of the PfCRTDd2 control	33 ± 1.4b % of the PfCRTDd2 control	100 ± 2.9b % of the PfCRTDd2 control	2.9 ± 0.09b % of the PfCRTDd2 control
